Experimental data taken from patent publication US7351398B2, “Stabilization of radiopharmaceutical compositions using hydrophilic thioethers” (CIS bio international, priority 2000, dated 2008).

Assays:
[1] = HPLC RCP of 99mTc-labelled depreotide kits with L-methionine; conditions: formulated kits stored under normal conditions (≦−10° C.)
Experimental: Lyophilized kit vials were prepared containing depreotide, L-methionine (Met), and other components as described in Table 3. All formulations were adjusted to pH 7.4 prior to lyophilization.
The lyophilized kits were radiolabelled with ^99mTc by reconstitution with 1.0 mL technetium ^99mTc sodium pertechnetate (Technelite®) containing approximately 50 mCi ^99mTc and heating in a boiling water bath for 10 minutes. Some of the formulations were also radiolabelled in a room temperature preparation (allowed to stand at room temperature 30 minutes following reconstitution).

[2] = HPLC RCP of 99mTc-labelled depreotide kits with L-methionine after accelerated temperature (40° C.) kit storage; assay type: physicochemical; conditions: lyophilized kits stored at 40° C. prior to radiolabelling
Experimental: Lyophilized kits were prepared containing depreotide, L-methionine (Met), and other components as described in Table 5. All formulations were adjusted to pH 7.4 prior to lyophilization. The kits were stored for one week at 40° C. Some kits were also stored at −10° C. as controls.
The lyophilized kits were radiolabelled with ^99mTc by reconstitution with 1.0 mL technetium ^99mTc sodium pertechnetate (Technelite®) containing approximately 50 mCi ^99mTc and incubation in a boiling water bath (10 min).

[3] = HPLC RCP of 99mTc-labelled benzodiazepinedione derivative kits with L-methionine; assay type: physicochemical; conditions: formulated kits
Experimental: L-methionine was tested for its ability to stabilize a ^99mTc-labelled glycoprotein IIb/IIIa receptor-binding benzodiazepinedione derivative 1-[(carboxyglycyl-glycyl-glycyl-cysteinamide)methyl]-4-(2-carboxyethyl)-7-[(4-amidinophenyl)methyl]-3,4-dihydro-1H-1,4-benzodiazepine-2,5-dione trifluoroacetate, having the structure.
All formulations were adjusted to pH 7.4 prior to lyophilization.
The lyophilized kits were radiolabelled with ^99mTc by reconstitution with 1.0 mL technetium ^99mTc sodium pertechnetate (Technelite®) containing approximately 50 mCi ^99mTc and heating in a boiling water bath for 10 minutes.

[4] = HPLC RCP of 99mTc-labelled glycoprotein IIb/IIIa receptor-binding peptide with L-methionine; assay type: physicochemical
Experimental: L-methionine was tested for its ability to stabilize a ^99mTc-labelled glycoprotein IIb/IIIa receptor-binding peptide having the structure.
Lyophilized kit vials were prepared containing the peptide (50 μg), sodium glucoheptonate dihydrate (10 mg), stannous chloride dihydrate (50 μg), and edetate disodium dihydrate (100 μg). The formulation was adjusted to pH 7.4 prior to lyophilization.
The lyophilized kits were radiolabelled with ^99mTc in the presence and absence of L-methionine. To the Met preparation was added 4 mg methionine (in 100 μL saline) and 100 μL ethanol. To the control preparation was added 100 μL ethanol and 100 μL saline to account for the additional saline or ethanol added with the L-methionine. Both vials were then reconstituted with 1.0 mL technetium ^99mTc sodium pertechnetate (Technelite®) containing approximately 50 mCi ^99mTc and allowed to incubate for 30 minutes at room temperature.

[5] = HPLC RCP of 99mTc-labelled monoamine, diamide, single thiol peptide chelator with L-methionine; assay type: physicochemical
Experimental: L-methionine was tested for its ability to stabilize a ^99mTc-labelled monoamine, diamide, single thiol peptide chelator having the structure.
Lyophilized kit “placebo” vials were prepared containing sodium glucoheptonate dihydrate, edetate disodium dihydrate, and stannous chloride dihydrate at the concentrations set forth in Table 1 (control formulation).
The peptide chelator was radiolabelled with ^99mTc in the presence and absence of L-methionine. The peptide chelator was dissolved in water at a concentration of 1 mg/mL, and 50 μg (50 μL) of the peptide was added to each of three placebo vials. Ethanol and L-methionine were added to the control and methionine preparations as described in Example 5. In addition, 100 μL phosphate buffered saline (PBS) was added to each preparation. The vials were reconstituted with 0.9-1.0 mL ^99mTc sodium pertechnetate (Technelite®) containing approximately 50 mCi ^99mTc, and heated in a boiling water bath for ten minutes.

[6] = HPLC RCP of 99mTc-labelled bisamine bisthiol non-peptide chelator with L-methionine; assay type: physicochemical
Experimental: L-methionine was tested for its ability to stabilize a ^99mTc-labelled non-peptide chelator (4-(butanoic acid)-2,2,9,9 tetramethyl-4,7-diaza-1,10-decanedithiol) having the structure.
The non-peptide chelator was radiolabelled with ^99mTc in the presence and absence of L-methionine using the placebo vial heated preparation procedure as described in Example 6.

[7] = HPLC RCP of 99mTc-labelled depreotide with hydrophilic thioether additives; assay type: physicochemical; conditions: for 3.5 hr RCP / 6.5 hr RCP / Initial RCP: 99mTc-depreotide kit, additive 4 mg in 100 μL, heated
Experimental: [drawing 16] These compounds and L-methionine were tested for their ability to stabilize ^99mTc-labelled depreotide. Each hydrophilic thioether was dissolved in water made up at 40 mg/mL and adjusted to pH 7 with HCl or NaOH. Each hydrophilic thioether (4 mg in 100 μL) was added to a formulated kit vial containing the peptide (“control” formulation in Table 1). To the control vials were added 100 μL water.

[8] = Radiochemical purity (RCP) by reversed phase HPLC of 99mTc-labelled depreotide kits with gentisic acid; assay type: physicochemical; conditions: included in formulated kits
Experimental: Lyophilized kit vials were prepared containing depreotide, GA, and other components as described in Table 1. Formulations were adjusted to pH 7.4 or 8.5 (as noted) prior to lyophilization.

3.5 hr RCP [7]	6.5 hr RCP [7]	Initial RCP [7]	Effect on radiolabelling yield and stability of 99mTc-labelled peptide (depreotide) [7]	Structure (SMILES)	further results
93.9%	90.7%	94.1%	increase	CSCC[C@H](N)CO [Methioninol, methioninol]	–
–	–	–	no effect	CSCCC=O [3-(methylthio)propionaldehyde, reference compound]	–
84%	80.9%	89.1%	increase	CSCC(O)CO (stereo not drawn) [3-Methylthio-1,2-propanediol, 3-methylthio-1,2-propanediol]	–

Further lines, the molecule ahead of its results:

Structure (SMILES)	3.5 hr RCP [7]	6.5 hr RCP [7]	Initial RCP [7]	Effect on radiolabelling yield and stability of 99mTc-labelled peptide (depreotide) [7]	further results
CSCC[C@H](N)C(=O)O [L-methionine]	90.4%	89.3%	95%	–	Effect on radiolabelling yield and stability of 99mTc-depreotide [1]: increases; Stabilization of 99mTc-depreotide [2]: does not stabilize; Effect on radiolabelling yield and stability of 99mTc-labelled benzodiazepinedione derivative [3]: increases; Effect on radiolabelling yield and stability of the 99mTc-peptide [4]: increases; HPLC RCP (%) 0.5 hr ([4]; 99mTc-GPIIb/IIIa peptide, 4 mg methionine or none, room temperature 30 min, 0.5 hr): 96.7%; HPLC RCP (%) 3.5 hr ([4]; 99mTc-GPIIb/IIIa peptide, 4 mg methionine or none, room temperature 30 min, 3.5 hr): 96.9%; HPLC RCP (%) 6.5 hr ([4]; 99mTc-GPIIb/IIIa peptide, 4 mg methionine or none, room temperature 30 min, 6.5 hr): 96.2%; Effect on radiolabelling yield and stability of 99mTc-labelled peptide chelator [5]: increases; HPLC RCP (%) 0.5 hr ([5]; 99mTc-peptide chelator, 4 mg L-methionine or none, heated, 0.5 hr): 98.4%; HPLC RCP (%) 3 hr ([5]; 99mTc-peptide chelator, 4 mg L-methionine or none, heated, 3 hr): 97.2%; HPLC RCP (%) 6 hr ([5]; 99mTc-peptide chelator, 4 mg L-methionine or none, heated, 6 hr): 95.5%; HPLC RCP (%) 9 hr ([5]; 99mTc-peptide chelator, 4 mg L-methionine or none, heated, 9 hr): 92.8%; Effect on radiolabelling yield and stability of 99mTc-labelled non-peptide chelator [6]: increases; HPLC RCP (%) 0.5 hr ([6]; 99mTc-non-peptide chelator, 4 mg methionine or none, heated, 0.5 hr): 66.7%; HPLC RCP (%) 3 hr ([6]; 99mTc-non-peptide chelator, 4 mg methionine or none, heated, 3 hr): 70.0%; HPLC RCP (%) 6 hr ([6]; 99mTc-non-peptide chelator, 4 mg methionine or none, heated, 6 hr): 70.8%; HPLC RCP (%) 9 hr ([6]; 99mTc-non-peptide chelator, 4 mg methionine or none, heated, 9 hr): 70.4%
CS(=O)(=O)CC[C@H](N)C(=O)O [methionine sulfone, reference compound]	–	–	–	no effect	–
CCSCCN [2-(Ethylthio)ethylamine]	94.2%	93.3%	92.8%	increase	–
O=C(O)c1cc(O)ccc1O [gentisic acid, Gentisic acid]	–	–	–	–	Effect on radiolabelling yield and stability of 99mTc-depreotide [8]: decreases
C[S+]([O-])CC[C@H](N)C(=O)O (stereo partly drawn) [Methionine sulfoxide, reference compound]	–	–	–	no effect	–
